Experimental data as given in PubChem BioAssay (NCI).
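1) Cells in 96-well plates. 2) Compound, 48 h, 5 concentrations. 3) Linear interpolation between surrounding doses. 4) Unreached endpoint = highest concentration. GI50: concentration for 50% inhibition of growth. At the TGI there is no net growth.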

Legend:
Assay in all cases: NCI anticancer screen, dose series, 48 h
786-0 renal = tested on: 786-0 renal
HCC-2998 colon = tested on: HCC-2998 colon
K-562 leukemia = tested on: K-562 leukemia
MDA-MB-435 = tested on: MDA-MB-435
NCI-H460 lung = tested on: NCI-H460 lung
OVCAR-5 ovarian = tested on: OVCAR-5 ovarian
SK-MEL-2 melanoma = tested on: SK-MEL-2 melanoma
U251 CNS = tested on: U251 CNS
NCI-H226 lung = tested on: NCI-H226 lung
HS 578T breast = tested on: HS 578T breast

Row | SMILES | GI50 (786-0 renal) [µM] | TGI (786-0 renal) [µM] | GI50 (HCC-2998 colon) [µM] | TGI (HCC-2998 colon) [µM] | GI50 (K-562 leukemia) [µM] | TGI (K-562 leukemia) [µM] | GI50 (MDA-MB-435) [µM] | TGI (MDA-MB-435) [µM] | GI50 (NCI-H460 lung) [µM] | TGI (NCI-H460 lung) [µM] | GI50 (OVCAR-5 ovarian) [µM] | TGI (OVCAR-5 ovarian) [µM] | GI50 (SK-MEL-2 melanoma) [µM] | TGI (SK-MEL-2 melanoma) [µM] | GI50 (U251 CNS) [µM] | TGI (U251 CNS) [µM] | GI50 (NCI-H226 lung) [µM] | TGI (NCI-H226 lung) [µM] | GI50 (HS 578T breast) [µM] | TGI (HS 578T breast) [µM]
1 | C[C@]12CC/C(=N\N)C[C@@H]1CC[C@@H]1[C@@H]2CC[C@]2(C)/C(=N/N)CC[C@@H]12 | > 100 | > 100 | > 100 | > 100 | > 100 | > 100 | > 100 | > 100 | > 100 | > 100 | > 100 | > 100 | > 100 | > 100 | > 100 | > 100 |  |  |  | 
2 | COc1cc(N=Nc2ccccc2)cc(/C=N\[N-]C(N)=S)c1[O-].COc1cc(N=Nc2ccccc2)cc(/C=N\[N-]C(N)=S)c1[O-].[Fe+4] | 36.2 | > 100 | 29.7 | > 100 | 16.1 | > 100 |  |  |  |  |  |  | 7.72 | 50.4 |  |  | > 100 | > 100 |  | 
3 | NC1CCCCC1N.O=C([O-])P(=O)([O-])[O-].[Na+].[Pt+4] (stereo not drawn) | > 100 | > 100 |  |  | > 100 | > 100 |  |  | 55.5 | > 100 | > 100 | > 100 |  |  | > 100 | > 100 | > 100 | > 100 |  | 
4 | COc1ccc(S(=O)(=O)N/N=C/CN2C(=O)c3ccccc3C2=O)cc1OC |  | > 100 |  | > 100 |  | > 100 |  |  |  | > 100 |  |  |  | > 100 |  | > 100 |  |  |  | 
5 | O=C(O)CNS(=O)(=O)c1ccc(NC(=O)c2ccc(F)cc2)cc1 |  | > 100 |  | > 100 |  | > 100 |  |  |  | > 100 |  | > 100 |  | > 100 |  | > 100 |  |  |  | 
6 | CC(C)COC(=O)N1N=NC2C3OC(CC3=O)C21 (stereo not drawn) |  | > 100 |  | > 100 |  | > 100 |  |  |  | > 100 |  | > 100 |  | > 100 |  | > 100 |  | > 100 |  | 
7 | CCN(CC)c1ccc(N=C2C=CC(=O)c3ncccc32)c(C)c1 |  | 16.6 |  | 24.2 |  | 5.95 |  |  |  | 21.8 |  | 24.4 |  | 29 |  | 19.6 |  | 38.8 |  | 
8 | NC(N)=N/N=C/c1c(-c2cccs2)nc2sccn12 | 9.61 | 21.4 |  |  | 6.49 | 21.5 | 13.2 | 25.9 | 14.7 | 39.7 | 17.5 | 31.3 |  |  | 15.8 | 33.9 | 13.2 | 26 |  | 
9 | CCN(CC)c1ccc(N=C2C=C(C(=O)Nc3ccc(S(C)(=O)=O)cc3)C(=O)c3ccccc32)c(C)c1 | > 100 | > 100 | > 100 | > 100 | 15.8 | > 100 | 7.49 | 54.8 | 35 | > 100 | > 100 | > 100 |  |  | 4.69 | > 100 | > 100 | > 100 | 1.87 | > 100
10 | N#Cc1c2ccccc2c2n1-c1ccccc1OC(c1ccccc1)C2=O (stereo not drawn) | 4.91 | 23 | 15.5 | 85.8 | 3.19 | 13.9 | 2.88 | 9.19 | 3.69 | 18.8 | 5.37 | 34 |  |  | 3.17 | 15.7 | 3.09 | 11.7 | 3.53 | 37
11 | CCOCC(=O)N[C@H]1CCc2cc(OC)c(OC)c(OC)c2-c2ccc(SC)c(=O)cc21 |  | > 88 |  |  |  | 12.5 |  | < 0.01 |  | 0.398 |  | > 100 |  |  |  | > 76.8 |  | 0.398 |  | 
12 | CS(=O)(=O)OCCN1CCN(C(=O)c2cccc3c(Nc4ccc(S(N)(=O)=O)cc4)c4ccccc4nc23)CC1 |  | > 100 |  | > 100 |  | > 81.1 |  |  |  | > 100 |  | > 100 |  | > 100 |  | > 100 |  | > 100 |  | 
13 | Cc1cc2c(cc1C)[n+](=O)c(C(=O)/C=C/c1ccc(Cl)cc1)c(C)n2[O-] |  | 34.4 |  | 46.1 |  | > 100 |  |  |  | 62.7 |  | > 100 |  | 79.1 |  | 67.9 |  | > 100 |  | 
14 | ON(CCc1ccncc1)Cc1ccccc1 |  | > 100 |  |  |  | > 100 |  | > 100 |  |  |  | > 100 |  |  |  |  |  | > 100 |  | > 100
15 | Cn1cc(NC(=O)c2cc(NC(=O)Nc3cc(C(=O)Nc4cc(C(=O)NCCC(=N)N)n(C)c4)n(C)c3)cn2C)cc1C(=O)NCCC(=N)N |  | 38.1 |  | > 100 |  | > 100 |  |  |  | 55.3 |  | > 100 |  |  |  | 69.9 |  |  |  | 
16 | N=S(=O)(c1ccccc1)c1ccccc1[N+](=O)[O-] (stereo not drawn) |  | > 100 |  | > 100 |  | > 100 |  |  |  | > 100 |  | > 100 |  | > 100 |  | > 100 |  | > 100 |  | 
17 | CCCCCCCCCCCCCC[P+](CCCCCC)(CCCCCC)CCCCCC | 0.253 | 2.1 | 0.168 | 1.69 | 0.0232 | 0.0858 | 0.0372 | 0.391 | 0.315 | 1.22 | 0.267 |  | 0.0266 | > 100 | 0.0384 | 1.29 |  |  | 0.041 | 
18 | CCN(CC)CC(=O)/C=C/c1ccc(C)cc1 |  | 34.4 |  | 31.7 |  | > 100 |  |  |  | 46 |  | > 100 |  |  |  | 30.1 |  | 53.8 |  | 
19 | CCNc1c(C(=O)N(CC)CC)c(=O)[nH]c2ncccc12 |  | > 100 |  | > 100 |  | > 100 |  |  |  | > 100 |  | > 100 |  | > 100 |  | > 100 |  | > 100 |  | 
20 | O=Nc1c(-c2cccc([N+](=O)[O-])c2)nc2cnccn12 |  | 37.4 |  |  |  | 49.2 |  | 43.1 |  | > 100 |  | 44 |  | 68.1 |  | 42.4 |  | 50.7 |  | > 100
21 | O=C1CCC2CCc3cccc4oc1c2c34 (stereo not drawn) |  | > 100 |  | > 100 |  | > 100 |  |  |  | > 100 |  |  |  |  |  | > 100 |  |  |  | 
22 | CCOC(=O)C(=O)C1C(=O)Nc2ccccc21 (stereo not drawn) |  | > 100 |  | > 100 |  | > 100 |  |  |  | > 100 |  | > 100 |  | > 100 |  | > 100 |  | > 100 |  | 
